Results from ChEMBL document CHEMBL1150424, “Novel azabicyclo[3.2.2]nonane derivatives and their activities against Plasmodium falciparum K1 and Trypanosoma brucei rhodesiense” (Bioorg Med Chem, 2008).

Experiments:
[1] = Selectivity index, Ratio of IC50 for L6 cells to IC50 for Plasmodium falciparum K1; format: functional
Plasmodium falciparum = assay: Antiplasmodial activity against chloroquine and pyrimethamine-resistant Plasmodium falciparum K1 after 48 hrs; format: functional, organism-based; details: K1, 48 h
L6 = assay: Cytotoxicity against rat L6 cells after 72 hrs by microplate alamar blue assay; format: cell-based; details: L6, 72 h
[2] = Selectivity index, Ratio of IC50 for L6 cells to IC50 for Trypanosoma brucei rhodesiense STIB 9; format: functional
[3] = system: Trypanosoma brucei rhodesiense; assay: Antitrypanosomal activity against Trypanosoma brucei rhodesiense STIB 900 after 72 hrs by microplate alamar blue assay; format: functional, organism-based; details: STIB 900, 72 h

Row | SMILES | Ratio IC50 [1] | IC50 (Plasmodium falciparum) | IC50 (L6) | Ratio IC50 [2] | IC50 [3]
1 | CN(C)C12CCNC(C(c3cccc4ccccc34)C1)C(c1cccc3ccccc13)C2 (racemic) | 13.48 | 480 nM | 6470 nM | 58.82 | 110 nM
2 | C[C@@H]1CC[C@H]2[C@@H](C)C(=O)O[C@@H]3O[C@@]4(C)CC[C@@H]1[C@]32OO4 [ARTEMISININ] | – | 6.4 nM | – | – | –
3 | NCCN1CCC2(N3CCCCC3)CC(c3ccc(Cl)cc3)C1C(c1ccc(Cl)cc1)C2 (racemic) | 22.47 | 150 nM | 3370 nM | 44.34 | 76 nM
4 | CN(C)C12CCN(CCN)C(C(c3ccc(Cl)cc3)C1)C(c1ccc(Cl)cc1)C2 (racemic) | 11.36 | 900 nM | 10200 nM | 20.44 | 500 nM
5 | NC(=O)CN1CCC2(N3CCCC3)CC(c3ccc(Cl)cc3)C1C(c1ccc(Cl)cc1)C2 (racemic) | 28.8 | 830 nM | 23900 nM | 31.45 | 760 nM
6 | Cc1ccc(C2CC3(N(C)C)CCNC2C(c2ccc(C)cc2)C3)cc1 (racemic) | 89.91 | 450 nM | 40500 nM | 337.2 | 120 nM
7 | CN(C)C12CCNC(C(c3ccc(Br)cc3)C1)C(c1ccc(Br)cc1)C2 (racemic) | 26.56 | 340 nM | 9030 nM | 103.9 | 87 nM
8 | CN(C)C12CCNC([C@H](c3ccccc3)C1)[C@H](c1ccccc1)C2 | – | – | – | – | 600 nM
9 | OCCN1CCC2(N3CCCCC3)CC(c3ccc(Cl)cc3)C1C(c1ccc(Cl)cc1)C2 (racemic) | 13.84 | 700 nM | 9690 nM | 14.46 | 670 nM
10 | Clc1ccc(C2CC3(N4CCCCC4)CCNC2C(c2ccc(Cl)c(Cl)c2)C3)cc1Cl (racemic) | 16.43 | 540 nM | 8870 nM | 55.44 | 160 nM
11 | COc1ccc(C2CC3(N(C)C)CCNC2C(c2ccc(OC)cc2)C3)cc1 (racemic) | 43.52 | 2690 nM | 117000 nM | 174.7 | 670 nM
12 | CN(C)C12CCNC(C(c3ccc(C(F)(F)F)cc3)C1)C(c1ccc(C(F)(F)F)cc1)C2 (racemic) | 11.11 | 850 nM | 9440 nM | 118 | 80 nM
13 | Clc1ccc(C2CC3(N4CCCC4)CCNC2C(c2ccc(Cl)c(Cl)c2)C3)cc1Cl (racemic) | 24.54 | 280 nM | 6870 nM | 45.8 | 150 nM
14 | CN(C)C12CCN(CC(N)=O)C(C(c3ccc(Cl)cc3)C1)C(c1ccc(Cl)cc1)C2 (racemic) | 23.01 | 1110 nM | 25500 nM | 28.07 | 910 nM
15 | CN(C)C12CCNC(C(c3ccc(Cl)c(Cl)c3)C1)C(c1ccc(Cl)c(Cl)c1)C2 (racemic) | 16.1 | 400 nM | 6440 nM | 71.56 | 90 nM
16 | NCCN1CCC2(N3CCCC3)CC(c3ccc(Cl)cc3)C1C(c1ccc(Cl)cc1)C2 (racemic) | 14.53 | 320 nM | 4650 nM | 22.14 | 210 nM
17 | CCOC(=O)CN1CCC2(N3CCCCC3)CC(c3ccc(Cl)cc3)C1C(c1ccc(Cl)cc1)C2 (racemic) | 12.94 | 1010 nM | 13100 nM | 5.97 | 2190 nM
18 | NC(=O)CN1CCC2(N3CCCCC3)CC(c3ccc(Cl)cc3)C1C(c1ccc(Cl)cc1)C2 (racemic) | 15.13 | 1570 nM | 23800 nM | 24 | 990 nM
19 | CN(C)C12CCNC(C(c3ccc(F)cc3)C1)C(c1ccc(F)cc1)C2 (racemic) | 209 | 890 nM | 186000 nM | 422.7 | 440 nM
20 | CCOC(=O)CN1CCC2(N(C)C)CC(c3ccc(Cl)cc3)C1C(c1ccc(Cl)cc1)C2 (racemic) | 7.31 | 700 nM | 5120 nM | 2.88 | 1780 nM
